The values below come from US20150368209A1, “4-Pyrimidinylamino-benzenesulfonamide derivatives and their use for the inhibition of polo-like kinase 1 (PLK1) for the treatment of cancer and their use for the treatment of bacterial infections” (VICHEM CHEMIE KUTATÓ KFT., priority 2013, published 2015).

Values after ≈ are worked out from the molar mass of the structure shown.

One data set addresses T1, human PLK1 kinase domain (Homo sapiens, UniProt P53350).
T1 construct: Each reaction consisted of 30 nM enzyme PLK1 kinase domain
Nature of the data set: In vitro PLK1 assay (IMAP fluorescence polarization kinase assay). The conditions noted are these: for inhibition at 10 µM: at 10 uM compound; for IC50: 30 nM PLK1 kinase domain, 16 μM ATP (=Kmapp), 90 min at room temperature. It counts as biochemical. How it is done:
The activity of the compounds described in the present invention was determined using a commercially available IMAP Screening Express Assay Kit (Molecular devices).
This method measures the change in the fluorescent polarization of a fluorescently-labeled peptide due to the effect of human PLK1 kinase domain on it. PLK1 kinase assays were performed in low protein binding 384-well plates (Corning 3676). Test compounds were diluted in 100% DMSO to 5 mM stock concentration, the further dilutions were made in H2O or 100% DMSO to desirable concentrations.
Each reaction consisted of 30 nM enzyme PLK1 kinase domain, 400 nM 5TAMRA-RGSFNDTLDFD-NH2 (Genecust Europe), 16 μM ATP (=Kmapp, Sigma-Aldrich) and kinase buffer: 20 mM HEPES pH 7.5 (Sigma-Aldrich), 1 mM DTT (Sigma-Aldrich), 10 mM MgCl2 (Sigma-Aldrich), 0.01% Triton X-100 (Sigma-Aldrich).
For each reaction, 4 or 6 μl containing 5TAMRA-RGSFNDTLDFD-NH2, ATP and kinase buffer were combined with 2 μl diluted compound in H2O or 0.04 μl compound in 100% DMSO. The kinase reaction was started by the addition of 2 μl diluted enzyme. The reaction was allowed to run for 90 minutes at room temperature. The reaction was stopped by adding 15 μl IMAP beads (1:1200 beads in progressive (40% buffer A, 60% buffer B) 1× buffer). After an additional 60 minutes, fluorescent polarization (Ex: 550-10 nm, Em: 590-10 nm, Dich: 561 nm) was measured using Analyst GT multimode reader (Molecular Devices).

Another data set concerns M. tuberculosis H37Rv. Nature of the data set: Resazurin reduction microtiter assay (REMA), growth inhibition and MIC determination. It is filed as cell-based. The conditions noted are these: Mycobacterium tuberculosis, 168 h, 7 days at 37° C.; for inhibition at 20 µM: at 20 uM compound, read-out: H37Rv inh % at 20 uM; for MIC: two-fold serial dilution from 100 to 0.16 μM, read-out: H37Rv MIC90.

T1 sequence (P53350 53-305 limits assumed): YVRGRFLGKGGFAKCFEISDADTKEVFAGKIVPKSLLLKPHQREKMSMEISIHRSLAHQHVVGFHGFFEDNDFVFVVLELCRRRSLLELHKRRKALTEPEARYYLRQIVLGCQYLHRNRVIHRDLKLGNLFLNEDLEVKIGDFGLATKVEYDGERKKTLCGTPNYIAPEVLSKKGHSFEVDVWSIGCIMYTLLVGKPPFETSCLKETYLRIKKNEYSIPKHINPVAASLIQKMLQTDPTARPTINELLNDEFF

In the case of `COc1ccc(C(C)(C)C)cc1-c1cc(Nc2ccc(S(=O)(=O)Nc3onc(C)c3C)cc2)ncn1` [Example 6, 4-[6-(5-tert-Butyl-2-methoxy-phenyl)-pyrimidin-4-ylamino]-N-(3,4-dimethyl-isoxazol-5-yl)-benzenesulfonamide], the “HepG2 TD50” value with HepG2 stood at 19.6. Moreover, at human PLK1 kinase domain, the inhibition at 10 µM came out at 26.1%. Moreover, in the data set with M. tuberculosis H37Rv, the inhibition at 20 µM was determined as 94.1% and the MIC was 19.6 µM (≈ 9.95 µg/mL).

Consider `COc1ccc(C)cc1-c1cc(Nc2ccc(S(=O)(=O)Nc3onc(C)c3C)cc2)ncn1` [Example 9, N-(3,4-Dimethyl-isoxazol-5-yl)-4-[6-(2-methoxy-5-methyl-phenyl)-pyrimidin-4-ylamino]-benzenesulfonamide], for which, in the data set with HepG2, the “HepG2 TD50” value was 19.6. Moreover, at human PLK1 kinase domain, half-maximal inhibition (IC50) required 0.807 µM and the inhibition at 10 µM is 67.6%. Moreover, in the data set on M. tuberculosis H37Rv, the inhibition at 20 µM amounted to 101% and the MIC came to 19.3 µM (≈ 8.98 µg/mL).

As for `COc1cccc(F)c1-c1cc(Nc2ccc(S(=O)(=O)Nc3onc(C)c3C)cc2)ncn1` [Example 12, N-(3,4-Dimethyl-isoxazol-5-yl)-4-[6-(2-fluoro-6-methoxy-phenyl)-pyrimidin-4-ylamino]-benzenesulfonamide], in the data set with HepG2, the “HepG2 TD50” value was determined as 19.6. Further, at human PLK1 kinase domain, the IC50 came out at 1.46 µM and the inhibition at 10 µM stood at 83.3%. For the same compound, in the data set with M. tuberculosis H37Rv, the inhibition at 20 µM was 102% and the MIC worked out at 1.13 µM (≈ 0.531 µg/mL).

Consider `COc1cccc(Cl)c1-c1cc(Nc2ccc(S(=O)(=O)Nc3onc(C)c3C)cc2)ncn1` [Example 15, 4-[6-(2-Chloro-6-methoxy-phenyl)-pyrimidin-4-ylamino]-N-(3,4-dimethyl-isoxazol-5-yl)-benzenesulfonamide], for which, in the data set with HepG2, the “HepG2 TD50” value stood at 0.0458. In addition, the inhibition at 10 µM on human PLK1 kinase domain amounted to 96.4%. Besides, in the data set on M. tuberculosis H37Rv, the inhibition at 20 µM was 102% and the MIC was determined as 0.292 µM (≈ 0.142 µg/mL).

Regarding `Cc1noc(NS(=O)(=O)c2ccc(Nc3cc(-c4cc(Cl)ccc4Cl)ncn3)cc2)c1C` [Example 16, 4-[6-(2,5-Dichloro-phenyl)-pyrimidin-4-ylamino]-N-(3,4-dimethyl-isoxazol-5-yl)-benzenesulfonamide], the “HepG2 TD50” value in the data set with HepG2 came to 2.37. For the same compound, on human PLK1 kinase domain, the IC50 was 0.604 µM and the inhibition at 10 µM was 7.9%. In addition, in the data set with M. tuberculosis H37Rv, the inhibition at 20 µM amounted to 100% and the MIC worked out at 11.8 µM (≈ 5.76 µg/mL).

On to `COc1cccc(OC)c1-c1cc(Nc2ccc(S(=O)(=O)Nc3onc(C)c3C)cc2)ncn1` [Example 22, 4-[6-(2,6-Dimethoxy-phenyl)-pyrimidin-4-ylamino]-N-(3,4-dimethyl-isoxazol-5-yl)-benzenesulfonamide], for which the “HepG2 TD50” value in the data set with HepG2 turned out to be 9.819. Moreover, the inhibition at 10 µM against human PLK1 kinase domain was 10.1%. Further, in the data set with M. tuberculosis H37Rv, the inhibition at 20 µM turned out to be 102% and the MIC turned out to be 7.24 µM (≈ 3.49 µg/mL).

`COc1cccc(-c2cc(Nc3ccc(S(=O)(=O)Nc4onc(C)c4C)cc3)ncn2)c1OC` [Example 36, 4-[6-(2,3-Dimethoxy-phenyl)-pyrimidin-4-ylamino]-N-(3,4-dimethyl-isoxazol-5-yl)-benzenesulfonamide]: at human PLK1 kinase domain, the IC50 stood at 2.18 µM and the inhibition at 10 µM worked out at 77.3%. In addition, the inhibition at 20 µM in the data set on M. tuberculosis H37Rv is -9.8%.

Regarding `COc1ccc(-c2cc(Nc3ccc(S(=O)(=O)Nc4onc(C)c4C)cc3)ncn2)c(OC)c1` [Example 37, 4-[6-(2,4-Dimethoxy-phenyl)-pyrimidin-4-ylamino]-N-(3,4-dimethyl-isoxazol-5-yl)-benzenesulfonamide], the “HepG2 TD50” value in the data set with HepG2 came out at 16.1. Also, on human PLK1 kinase domain, half-maximal inhibition (IC50) was put at 0.947 µM and the inhibition at 10 µM came out at 70%. For the same compound, in the data set with M. tuberculosis H37Rv, the inhibition at 20 µM stood at 101% and the MIC came to 13.7 µM (≈ 6.57 µg/mL).

Regarding `COc1ccc(F)cc1-c1cc(Nc2ccc(S(=O)(=O)Nc3onc(C)c3C)cc2)ncn1` [Example 38, N-(3,4-Dimethyl-isoxazol-5-yl)-4-[6-(5-fluoro-2-methoxy-phenyl)-pyrimidin-4-ylamino]-benzenesulfonamide], on human PLK1 kinase domain, half-maximal inhibition (IC50) required 3.19 µM and the inhibition at 10 µM was found to be 80.8%. In the data set on M. tuberculosis H37Rv, the inhibition at 20 µM worked out at 96.4% and the MIC was 19.6 µM (≈ 9.2 µg/mL).

For `Cc1noc(NS(=O)(=O)c2ccc(Nc3cc(-c4ccccc4)ncn3)cc2)c1C` [Example 39, N-(3,4-Dimethyl-isoxazol-5-yl)-4-(6-phenyl-pyrimidin-4-ylamino)-benzenesulfonamide], the inhibition at 10 µM on human PLK1 kinase domain was determined as 57.9%. The inhibition at 20 µM in the data set with M. tuberculosis H37Rv is -22.2%.

In the case of `Cc1noc(NS(=O)(=O)c2ccc(Nc3cc(-c4ccccc4F)ncn3)cc2)c1C` [Example 40, N-(3,4-Dimethyl-isoxazol-5-yl)-4-[6-(2-fluoro-phenyl)-pyrimidin-4-ylamino]-benzenesulfonamide], at human PLK1 kinase domain, half-maximal inhibition (IC50) required 2.43 µM and the inhibition at 10 µM came out at 88.6%. Further, the inhibition at 20 µM in the data set with M. tuberculosis H37Rv is -8.5%.

In the case of `COc1ccccc1-c1cc(Nc2ccc(S(=O)(=O)NC(=O)C(C)C(C)=O)cc2)ncn1` (stereo not drawn) [Example 41, 4-[6-(2-Methoxy-phenyl)-pyrimidin-4-ylamino]-N-(2-methyl-3-oxo-butyryl)-benzenesulfonamide], the inhibition at 10 µM on human PLK1 kinase domain was found to be 59%. In addition, the inhibition at 20 µM with M. tuberculosis H37Rv is -4.8%.

With `Cc1noc(NS(=O)(=O)c2ccc(Nc3cc(-c4cccc(C(F)(F)F)c4)ncn3)cc2)c1C` [Example 42, N-(3,4-Dimethyl-isoxazol-5-yl)-4-[6-(3-trifluoromethyl-phenyl)-pyrimidin-4-ylamino]-benzenesulfonamide], at human PLK1 kinase domain, the inhibition at 10 µM amounted to 17%. Also, the inhibition at 20 µM in the data set with M. tuberculosis H37Rv amounted to 24.2%.

As for `Cc1noc(NS(=O)(=O)c2ccc(Nc3cc(-c4cccc5ccccc45)ncn3)cc2)c1C` [Example 43, N-(3,4-Dimethyl-isoxazol-5-yl)-4-(6-naphthalen-1-yl-pyrimidin-4-ylamino)-benzenesulfonamide], at human PLK1 kinase domain, the IC50 was 13.8 µM and the inhibition at 10 µM was 58.8%. Moreover, the inhibition at 20 µM in the data set on M. tuberculosis H37Rv is -9.2%.
